According to patent publication US20030125311A1, “Compounds capable of binding with the cytoskeleton” (priority 2002, published 2003):
Structures can show the parent of a compound that is named as a salt.

Experiments:
[1] = test system: rat brain cytosol binding sites of pregnenolone; experiment: Competition trials for PREG [3H] binding in brain cytosol; parameters: key to R.C.R. 50 (relative competition index): IC50(PREG)/IC50(competitor) ×100; PREG = 100; details: for R.C.R. 50 (relative competition index): PREG = 100, 50% reduction of specific binding of 100 nM PREG [3H], mean±standard error, n=3
Description: (§1) In trials of competition between pregnenolone and different steroids for the binding studied, 0.2 ml of cytosol is incubated with 100 nM of PREG [^3H] and a 1-, 10-, 100-, and 1,000-fold excess of non-radioactive steroid.
To study the specificity of the binding of PREG [^3H], different steroids were used.
(§2) The relative competition index was determined as ratios of the concentrations of the competitor (in the […]) versus PREG causing a reduction of 50% of the specific binding of PREG [^3H]×100 (mean±standard error, n=3).

MT (Beef) = experiment: Index of competition with pregnenolone, MT (beef); format: binding; details: Pregnenolone = 100%
Description: as §1

Cytosol (Rat) = experiment: Index of competition with pregnenolone, cytosol (rat); format: binding; details: Pregnenolone = 100%
Description: as §1

[2] = target: T1, microtubules reconstituted with purified tubulin and MAP2 (Bos taurus, UniProt A0A3Q1NAK9); experiment: Kinetics of assembling of microtubules (turbidity at 345 nm); format: biochemical, calf; details: for effect on assembling of microtubules (absorbance at 345 nm): 500 nM steroid, 37° C., 15 min
T1 construct: from tissue; host or cells: calf brain
T1 sequence (A0A3Q1NAK9 1-1867): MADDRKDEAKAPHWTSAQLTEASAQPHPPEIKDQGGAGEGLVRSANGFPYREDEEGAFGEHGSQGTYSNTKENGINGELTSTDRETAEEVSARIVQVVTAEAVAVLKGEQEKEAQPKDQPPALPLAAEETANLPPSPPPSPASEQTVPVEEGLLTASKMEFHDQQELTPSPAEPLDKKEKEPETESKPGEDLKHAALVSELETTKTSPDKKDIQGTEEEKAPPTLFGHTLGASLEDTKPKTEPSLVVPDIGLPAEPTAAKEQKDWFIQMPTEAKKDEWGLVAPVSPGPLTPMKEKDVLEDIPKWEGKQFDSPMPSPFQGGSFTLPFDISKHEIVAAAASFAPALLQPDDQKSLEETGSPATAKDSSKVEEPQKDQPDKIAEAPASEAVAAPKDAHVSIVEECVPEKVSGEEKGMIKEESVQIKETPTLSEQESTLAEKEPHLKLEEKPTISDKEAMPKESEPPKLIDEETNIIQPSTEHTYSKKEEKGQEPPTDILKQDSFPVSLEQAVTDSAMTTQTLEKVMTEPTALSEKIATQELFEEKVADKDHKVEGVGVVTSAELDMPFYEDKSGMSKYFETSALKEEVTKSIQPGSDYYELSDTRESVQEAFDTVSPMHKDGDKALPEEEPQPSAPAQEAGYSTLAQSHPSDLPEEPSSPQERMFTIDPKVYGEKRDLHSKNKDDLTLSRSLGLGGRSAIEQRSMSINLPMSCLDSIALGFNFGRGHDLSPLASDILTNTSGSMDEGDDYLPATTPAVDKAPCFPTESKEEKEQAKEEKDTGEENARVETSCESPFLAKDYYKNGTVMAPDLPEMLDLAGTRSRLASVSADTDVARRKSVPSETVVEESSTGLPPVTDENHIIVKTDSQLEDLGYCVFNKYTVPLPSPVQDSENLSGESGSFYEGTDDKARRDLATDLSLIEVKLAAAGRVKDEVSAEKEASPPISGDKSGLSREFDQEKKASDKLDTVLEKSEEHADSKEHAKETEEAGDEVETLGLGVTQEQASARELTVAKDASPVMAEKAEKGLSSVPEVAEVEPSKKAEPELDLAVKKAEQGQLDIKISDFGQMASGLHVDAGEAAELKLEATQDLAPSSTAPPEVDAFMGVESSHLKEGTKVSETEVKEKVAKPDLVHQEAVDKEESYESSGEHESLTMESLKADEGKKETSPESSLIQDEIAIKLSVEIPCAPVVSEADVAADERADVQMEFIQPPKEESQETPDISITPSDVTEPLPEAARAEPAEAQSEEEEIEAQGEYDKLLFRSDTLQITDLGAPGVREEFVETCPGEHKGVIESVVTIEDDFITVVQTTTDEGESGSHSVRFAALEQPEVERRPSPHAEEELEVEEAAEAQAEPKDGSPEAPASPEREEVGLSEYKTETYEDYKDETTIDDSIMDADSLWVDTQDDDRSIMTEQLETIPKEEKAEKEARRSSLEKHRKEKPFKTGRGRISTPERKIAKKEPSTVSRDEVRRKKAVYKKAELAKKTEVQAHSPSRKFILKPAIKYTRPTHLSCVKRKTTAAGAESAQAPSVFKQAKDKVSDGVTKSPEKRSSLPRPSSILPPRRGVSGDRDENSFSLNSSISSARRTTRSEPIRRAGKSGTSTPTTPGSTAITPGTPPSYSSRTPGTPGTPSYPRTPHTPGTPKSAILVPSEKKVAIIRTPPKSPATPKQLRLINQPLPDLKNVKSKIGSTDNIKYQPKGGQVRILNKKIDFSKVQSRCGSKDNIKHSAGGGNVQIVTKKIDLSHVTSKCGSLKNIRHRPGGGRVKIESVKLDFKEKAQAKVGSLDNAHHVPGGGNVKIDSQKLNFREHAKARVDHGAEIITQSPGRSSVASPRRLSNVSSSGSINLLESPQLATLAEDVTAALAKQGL
Description: This assembling is measured by monitoring the increases of turbidity with a UVICON® spectrophotometer (Kontron Instruments, Montigny-le-Bretonneux, France)
The microtubules are reconstituted in vitro with purified tubulin (1 mg/ml) and MAP2 (0.05 mg/ml) in buffer A.
The increase of absorbance is measured at 345 nm, at 37° C. and recorded every 30 sec. for 15 min.
The assembling of microtubules is measured either in the absence of steroids (-⋄-); or in the presence of 500 nM of steroid: PREG (- -), progesterone (-X-), estradiol (-V-); or in the presence, at the same time, of PREG and progesterone (-∘-) or of PREG and estradiol (-Δ-) each at a concentration of 500 nM.

MAP2-tubulin copolymers = MAP2-tubulin copolymers (Bos taurus, UniProt A0A3Q1NAK9); experiment: Competition for PREG [3H] binding to MAP2-tubulin copolymers (RCR); parameters: species or system calf; details: for RCR: MAP2-tubulin copolymers, PREG = 100
Chain of MAP2-tubulin copolymers (A0A3Q1NAK9 1-1867): as above
Description: as §1, §2
Purified calf brain tubulin (90 μg/ml), MAP2 (45 μg/ml) or tau protein (25 μg/ml) is incubated with 100 nM of PREG [^3H], with or without a 1,000-fold excess of non-radioactive PREG.

fetal microtubules = fetal microtubules (Rattus norvegicus, UniProt P15146); experiment: Competition for PREG [3H] binding to fetal microtubules (RCR); details: PREG = 100
Chain of fetal microtubules (P15146 whole entry): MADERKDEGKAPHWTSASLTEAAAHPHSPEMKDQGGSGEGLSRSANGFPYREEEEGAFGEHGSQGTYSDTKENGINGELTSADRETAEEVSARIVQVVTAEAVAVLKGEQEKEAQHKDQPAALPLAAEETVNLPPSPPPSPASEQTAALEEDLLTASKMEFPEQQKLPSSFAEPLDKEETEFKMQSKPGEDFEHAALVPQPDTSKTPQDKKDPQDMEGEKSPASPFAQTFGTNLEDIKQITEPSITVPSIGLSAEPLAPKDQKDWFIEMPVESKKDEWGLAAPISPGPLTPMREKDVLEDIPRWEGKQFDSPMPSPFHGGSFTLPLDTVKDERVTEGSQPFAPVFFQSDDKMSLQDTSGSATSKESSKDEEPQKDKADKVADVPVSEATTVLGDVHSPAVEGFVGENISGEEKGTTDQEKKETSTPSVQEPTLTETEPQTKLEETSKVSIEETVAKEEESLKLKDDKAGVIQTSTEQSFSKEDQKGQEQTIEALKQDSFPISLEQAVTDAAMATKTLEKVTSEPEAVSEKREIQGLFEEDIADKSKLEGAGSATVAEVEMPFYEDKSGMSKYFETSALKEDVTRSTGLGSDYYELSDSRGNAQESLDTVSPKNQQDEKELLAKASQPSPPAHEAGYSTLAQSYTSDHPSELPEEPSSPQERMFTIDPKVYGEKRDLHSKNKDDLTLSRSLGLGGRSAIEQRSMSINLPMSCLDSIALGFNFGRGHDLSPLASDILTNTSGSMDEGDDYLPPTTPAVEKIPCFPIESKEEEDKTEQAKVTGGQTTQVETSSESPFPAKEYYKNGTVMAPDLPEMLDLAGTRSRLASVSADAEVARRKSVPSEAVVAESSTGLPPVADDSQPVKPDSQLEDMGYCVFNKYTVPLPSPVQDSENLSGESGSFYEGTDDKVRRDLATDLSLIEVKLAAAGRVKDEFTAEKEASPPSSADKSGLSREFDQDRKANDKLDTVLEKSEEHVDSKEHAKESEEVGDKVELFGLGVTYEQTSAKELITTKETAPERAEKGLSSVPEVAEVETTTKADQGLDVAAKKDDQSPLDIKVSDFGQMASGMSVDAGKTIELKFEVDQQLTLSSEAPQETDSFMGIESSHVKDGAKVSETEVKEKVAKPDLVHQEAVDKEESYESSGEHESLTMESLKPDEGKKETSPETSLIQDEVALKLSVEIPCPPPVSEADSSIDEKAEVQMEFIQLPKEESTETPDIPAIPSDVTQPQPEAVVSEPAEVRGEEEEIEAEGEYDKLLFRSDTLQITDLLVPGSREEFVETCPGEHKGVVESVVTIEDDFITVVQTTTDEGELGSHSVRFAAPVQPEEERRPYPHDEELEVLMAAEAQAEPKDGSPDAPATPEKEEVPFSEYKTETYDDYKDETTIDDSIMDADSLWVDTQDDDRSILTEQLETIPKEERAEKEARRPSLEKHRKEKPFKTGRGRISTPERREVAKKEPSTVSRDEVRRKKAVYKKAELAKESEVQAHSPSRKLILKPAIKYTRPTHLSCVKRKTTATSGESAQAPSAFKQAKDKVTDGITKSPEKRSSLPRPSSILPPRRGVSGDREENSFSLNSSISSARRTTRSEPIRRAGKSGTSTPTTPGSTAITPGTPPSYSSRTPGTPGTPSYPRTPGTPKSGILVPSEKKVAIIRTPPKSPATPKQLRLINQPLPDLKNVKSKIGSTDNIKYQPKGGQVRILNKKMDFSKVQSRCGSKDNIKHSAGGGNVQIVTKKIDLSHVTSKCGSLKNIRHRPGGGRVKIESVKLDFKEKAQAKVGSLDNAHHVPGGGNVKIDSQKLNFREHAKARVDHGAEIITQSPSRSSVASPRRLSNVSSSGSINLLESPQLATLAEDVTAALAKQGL
Description: as §1
The microtubules are prepared starting from calf brain or adult or fetal rat brain according to an assembly/disassembly method, as a function of the temperature, in vitro (12).
as §2
The binding of PREG [^3H] to microtubules prepared by polymerization/depolymerization cycles was determined.

MAP-2c + Tubuline = target: T2, MAP-2c + Tubuline (Homo sapiens, UniProt P11137); experiment: Index of competition with pregnenolone, MAP-2c + tubulin; format: binding; details: Pregnenolone = 100%
T2 sequence (P11137 1-471 isoform P11137-2): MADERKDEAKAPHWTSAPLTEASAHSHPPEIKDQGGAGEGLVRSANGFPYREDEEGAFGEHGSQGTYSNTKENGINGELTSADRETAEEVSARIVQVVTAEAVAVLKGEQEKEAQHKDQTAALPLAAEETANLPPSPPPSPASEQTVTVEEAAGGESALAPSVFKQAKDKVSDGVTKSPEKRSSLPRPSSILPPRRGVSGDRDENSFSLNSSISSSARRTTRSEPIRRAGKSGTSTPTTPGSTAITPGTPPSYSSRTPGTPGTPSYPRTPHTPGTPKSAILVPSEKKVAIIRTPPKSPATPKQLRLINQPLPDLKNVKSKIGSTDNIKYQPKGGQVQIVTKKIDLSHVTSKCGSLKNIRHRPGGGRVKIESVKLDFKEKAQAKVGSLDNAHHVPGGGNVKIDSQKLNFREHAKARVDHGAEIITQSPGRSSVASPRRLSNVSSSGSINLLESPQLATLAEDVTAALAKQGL
Description: as §1

Cytosol (piglet) = experiment: Index of competition with pregnenolone, cytosol (piglet); format: binding; details: Pregnenolone = 100%; cell marked piglet
Description: as §1

[3] = test system: binding sites of PREG [3H] in brain cytosol; experiment: Effects of hydrolytic enzymes on the binding of PREG [3H] in cytosol; parameters: species or system rat
Description: Proteinase K (Merck, Darmstadt, Germany) and Pronase® are dissolved at 1 mg/ml in TNM buffer containing 10 mM of Tris, 0.1M of NaCl, 3 mM of MgCl2 (pH 7.4). Deoxyribonuclease I and ribonuclease A are products of Sigma-Aldrich and are respectively adjusted to 100 IU/ml and 5 IU/ml. Phospholipase A2 (Roche Molecular Biochemicals) is diluted to 20 IU/ml in TNM.
1 ml of brain cytosol is incubated with 0.2 ml of an enzyme solution at 37° C. for 30 min. The binding activity is studied of samples (0.2 ml) which had undergone the enzyme treatment or control samples diluted with buffer only.
To study the effects of hydrolytic enzymes on the binding of PREG [^3H], samples of 1 ml of cytosol incubated with 0.2 ml of an enzyme solution at 37° C. for 30 min were used. The results obtained, expressed as % of the control incubation (cytosol diluted in a buffer) are reported in Table 1 (mean±standard error, n=3).

CC(C)CCC[C@@H](C)[C@H]1CC[C@H]2[C@@H]3CC=C4C[C@@H](O)CC[C@]4(C)[C@H]3CC[C@]12C [Cholesterol]
R.C.R. 50 (relative competition index) [1]: 0.02

[2H]OC1CCC2(C)C(=CCC3C2CCC2(C)C3CCC2[C@H](C)O)C1 (stereo partly drawn) [Δ5-pregnene-3β.20α-diol, Δ5-pregnene-3β, 20α-diol]
Index of Competition, MT (Beef) (MT (Beef)): 100 (beef) %
Index of Competition, Cytosol (Rat) (Cytosol (Rat)): 87%
competition for the binding of PREG [3H] (in words) [1]: best competitors
R.C.R. 50 (relative competition index) [1]: 68.4 ± 15.3

CC(=O)C1CCC2C3CC=C4CC(OS(=O)(=O)O)CCC4(C)C3CCC12C (stereo not drawn) [Preqnenolone sulfate, pregnenolone sulfate]
effect on assembling of microtubules (absorbance at 345 nm) [2]: effects similar to those of progesterone
RCR (MAP2-tubulin copolymers): 91.5
RCR (fetal microtubules): 78.8
competition for the binding of PREG [3H] (in words) [1]: best competitors
R.C.R. 50 (relative competition index) [1]: 78.8 ± 7.0

C[C@H](O)C1CCC2C3CCC4CC(O)CCC4(C)C3CCC21C (stereo partly drawn) [5a-Pregnama 3β, 20a-diol]
Index of Competition, MT (Beef) (MT (Beef)): 96%
Index of Competition, Cytosol (Rat) (Cytosol (Rat)): 100%

C[C@]12CC[C@@H]3c4ccc(O)cc4CC[C@H]3[C@@H]1CC[C@@H]2O [Estradiol]
effect on assembling of microtubules (absorbance at 345 nm) [2]: inactive

CC(=O)[C@@]1(O)CC[C@H]2[C@@H]3CC=C4C[C@@H](O)CC[C@]4(C)[C@H]3CC[C@@]21C [17α-hydroxy-pregnenolone]
R.C.R. 50 (relative competition index) [1]: 0.85

C[C@]12CC[C@H](O)CC1=CC[C@@H]1[C@@H]2CC[C@]2(C)C(=O)CC[C@@H]12 [Dehydroepiandrosterone]
RCR (MAP2-tubulin copolymers): 2.3

CC(=O)C1[C@H](C)CC2C3CC=C4CC(O)CCC4(C)C3CCC21C (stereo partly drawn) [PREG-16a-methyl]
Index of Competition, MT (Beef) (MT (Beef)): 88%
Index of Competition, Cytosol (Rat) (Cytosol (Rat)): 80%

CC(=O)[C@H]1CC[C@H]2[C@@H]3CCC4=CC(=O)CC[C@]4(C)[C@H]3CC[C@]12C [Progesterone]
effect on assembling of microtubules (absorbance at 345 nm) [2]: without effect
effect on PREG-stimulated assembly of microtubules ([2]; with PREG, each at 500 nM): counteracts the stimulative effect of PREG on the assembly of microtubules
binding to MAP2 (in words) (MAP2-tubulin copolymers): affinity for MAP2 of the same order as that of PREG
RCR (MAP2-tubulin copolymers): 81.3
RCR (fetal microtubules): 72.1
competition for the binding of PREG [3H] (in words) [1]: best competitors
R.C.R. 50 (relative competition index) [1]: 72.1 ± 17.7

CC(=O)C1CC=C2C3CC=C4CC(O)CCC4(C)C3CCC21C (stereo not drawn) [3β-OH-5, 14 Preqnadiene-20-one]
Index of Competition, MT (Beef) (MT (Beef)): 95%
Index of Competition, Cytosol (Rat) (Cytosol (Rat)): 102%

CC(=O)[C@@]1(O)CC[C@H]2[C@@H]3CCC4=CC(=O)CC[C@]4(C)[C@H]3CC[C@@]21C [17α-hydroxy-progesterone]
R.C.R. 50 (relative competition index) [1]: 0.79

CC(=O)[C@H]1CC[C@H]2[C@@H]3CC[C@H]4C[C@@H](O)CC[C@]4(C)[C@H]3CC[C@]12C [3β-hydroxy-5α-pregnane 20-one, 3β-hydroxy-5α-pregnane-20-one]
competition for the binding of PREG [3H] (in words) [1]: effective competitor
times less active than PREG as competitor [1]: 5 times
R.C.R. 50 (relative competition index) [1]: 18.4 ± 4.0

CC(=O)C1CCC2C3CC=C4CC(OS(=O)(=O)c5ccc(C)cc5)CCC4(C)C3CCC12C (stereo not drawn) [PREG Tosylate]
Index of Competition, MT (Beef) (MT (Beef)): 121%
Index of Competition, Cytosol (Rat) (Cytosol (Rat)): 107%
Index of Competition, MAP-2c + Tubuline (MAP-2c + Tubuline): 129%

[2H]OC1CCC2(C)C(=CCC3C2CCC2(C)C3CC(C)C2C(C)=O)C1 (stereo not drawn) [PREG-16β-methyl]
Index of Competition, MT (Beef) (MT (Beef)): 83 (beef) %
Index of Competition, Cytosol (Rat) (Cytosol (Rat)): 63%
Index of Competition, MAP-2c + Tubuline (MAP-2c + Tubuline): 97%

CC(=O)OCC(=O)[C@H]1CC[C@H]2[C@@H]3CC=C4C[C@@H](O)CC[C@]4(C)[C@H]3CC[C@]12C [3β-OH-Pregna-5-ene-20-one-21-acetoxy]
Index of Competition, MT (Beef) (MT (Beef)): 107%
Index of Competition, Cytosol (piglet) (Cytosol (piglet)): 80 (piglet) %

Phospholipase A2 [reference compound]
% of Control (binding of PREG [3H]) ([3]; cytosol incubated with enzyme at 37° C. for 30 min, mean±standard error, n=3): 85.0 ± 7.3%
effect on binding sites of PREG [3H] (in words) ([3]; enzyme treatment of cytosol): no significant effect

C[C@]12CC[C@H]3[C@@H](CCC4=CC(=O)CC[C@@]43C)[C@@H]1CC[C@@H]2O [Testosterone, reference compound]
RCR (MAP2-tubulin copolymers): 2.3
RCR (fetal microtubules): 5.6
